Starred links: 1 amine or outer side, 2 acyl side, 3 side chain; linkers in the order of their positions; H or OH if unused. Positions of bridges follow the written chain, without caps; N, C: chain ends. Non-standard residues stand in square brackets, D forms with d. Residues, ends and D or L forms follow the SMILES beside them. Trp(5-F) = N[C@@H](Cc1c[nH]c2ccc(F)cc12)C(=O)O; Trp(7-aza) = N[C@@H](Cc1c[nH]c2ncccc12)C(=O)O; NMePhe(4-F) = CN[C@@H](Cc1ccc(F)cc1)C(=O)O; Phe(4-F) = N[C@@H](Cc1ccc(F)cc1)C(=O)O; mXylylene = c1cc(C[*:1])cc(C[*:2])c1; pXylylene = c1cc(C[*:2])ccc1C[*:1]; Chg = N[C@H](C(=O)O)C1CCCCC1; Phg = N[C@H](C(=O)O)c1ccccc1; Tle = CC(C)(C)[C@H](N)C(=O)O; NMeS = CN[C@@H](CO)C(=O)O; Nva = CCC[C@H](N)C(=O)O

One assay deals with C5 (Homo sapiens, UniProt P01031). Kind of assay: Human hemolysis assay (RBC lysis assay using complete human sera). It is filed as cell-based. Set-up: with complete human sera (Complement Technology, Tyler Tex.) and polypeptides; tissue Complement Technology, Tyler Tex; host or cells: complete human serum. The note with it: 7-azatryptophan variant polypeptides of R3002; inhibition of red blood cell lysis.
C5, sequence (P01031 19-1676): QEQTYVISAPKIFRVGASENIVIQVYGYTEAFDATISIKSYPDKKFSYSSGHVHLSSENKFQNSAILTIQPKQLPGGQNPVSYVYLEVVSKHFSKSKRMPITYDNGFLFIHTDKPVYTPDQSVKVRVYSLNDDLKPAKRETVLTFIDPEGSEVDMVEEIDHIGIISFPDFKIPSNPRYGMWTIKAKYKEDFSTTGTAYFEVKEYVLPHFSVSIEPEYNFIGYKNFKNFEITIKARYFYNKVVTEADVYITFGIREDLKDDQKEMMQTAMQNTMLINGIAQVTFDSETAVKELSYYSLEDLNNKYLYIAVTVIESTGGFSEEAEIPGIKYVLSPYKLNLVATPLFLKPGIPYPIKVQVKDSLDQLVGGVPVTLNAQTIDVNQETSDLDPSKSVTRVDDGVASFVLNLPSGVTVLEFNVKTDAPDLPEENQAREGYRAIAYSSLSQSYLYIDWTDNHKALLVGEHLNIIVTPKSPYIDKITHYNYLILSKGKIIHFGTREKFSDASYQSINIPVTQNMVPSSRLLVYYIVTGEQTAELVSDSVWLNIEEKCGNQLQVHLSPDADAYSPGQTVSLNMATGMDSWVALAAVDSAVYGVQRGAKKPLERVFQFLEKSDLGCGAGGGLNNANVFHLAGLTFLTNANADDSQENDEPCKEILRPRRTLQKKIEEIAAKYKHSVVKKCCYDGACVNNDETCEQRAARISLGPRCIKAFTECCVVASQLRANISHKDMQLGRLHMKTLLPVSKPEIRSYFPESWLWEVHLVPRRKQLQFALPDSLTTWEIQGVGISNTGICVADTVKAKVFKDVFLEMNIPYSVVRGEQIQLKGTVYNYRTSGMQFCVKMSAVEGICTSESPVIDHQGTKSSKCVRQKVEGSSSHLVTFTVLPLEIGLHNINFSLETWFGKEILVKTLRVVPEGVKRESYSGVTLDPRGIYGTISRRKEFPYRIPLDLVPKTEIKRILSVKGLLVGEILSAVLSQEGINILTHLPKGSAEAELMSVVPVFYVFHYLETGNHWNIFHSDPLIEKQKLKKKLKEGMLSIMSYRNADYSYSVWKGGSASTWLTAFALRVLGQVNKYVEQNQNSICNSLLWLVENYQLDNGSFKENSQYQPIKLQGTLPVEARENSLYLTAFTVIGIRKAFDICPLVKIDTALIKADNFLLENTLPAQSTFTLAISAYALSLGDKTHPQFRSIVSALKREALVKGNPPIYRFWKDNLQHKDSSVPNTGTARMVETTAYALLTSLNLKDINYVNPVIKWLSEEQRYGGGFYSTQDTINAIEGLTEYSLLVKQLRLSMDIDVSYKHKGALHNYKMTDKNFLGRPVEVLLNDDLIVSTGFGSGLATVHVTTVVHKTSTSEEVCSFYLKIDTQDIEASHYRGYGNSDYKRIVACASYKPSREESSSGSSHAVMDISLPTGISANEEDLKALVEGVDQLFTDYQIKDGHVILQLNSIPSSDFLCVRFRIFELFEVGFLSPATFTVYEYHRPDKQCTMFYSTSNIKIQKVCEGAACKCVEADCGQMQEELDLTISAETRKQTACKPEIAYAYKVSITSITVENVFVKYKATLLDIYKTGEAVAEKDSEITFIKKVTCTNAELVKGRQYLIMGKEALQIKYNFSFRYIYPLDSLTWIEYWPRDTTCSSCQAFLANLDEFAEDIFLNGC
With `CCC[C@H](NC(C)=O)C(=O)N[C@@H](CS)C(=O)N[C@@H](Cc1ccc(O)cc1)C(=O)N[C@@H](CC(N)=O)C(=O)N[C@@H](CC(N)=O)C(=O)N[C@H](C(=O)N[C@@H](CCC(=O)O)C(=O)N[C@@H](CS)C(=O)N[C@@H](CCC(=O)O)C(=O)N[C@@H](Cc1ccc(O)cc1)C(=O)N1CCC[C@H]1C(=O)N[C@H](C(=O)N[C@H](C(N)=O)C(C)(C)C)c1ccccc1)C(C)(C)C` [Compound R3128, Ac-Nvl-C-Y-N-N-Tbg-E-C-E-Y-P-Phg-Tbg-NH2] (Ac-[Nva]CYNN[Tle]ECEYP[Phg][Tle]-NH2), the IC50 was greater than 100000 nM.

Still in this assay, the particulars now being: 7-azatryptophan variant polypeptides of R3008; inhibition of red blood cell lysis.
For `CCC[C@H](NC(=O)[C@@H]1CSCc2cccc(c2)CSC[C@H](NC(=O)[C@H](CCC)NC(C)=O)C(=O)N[C@@H](c2ccccc2)C(=O)N[C@@H]([C@@H](C)O)C(=O)N[C@@H](Cc2c[nH]c3ccc(F)cc23)C(=O)N[C@@H](CCC(=O)O)C(=O)N[C@@H](Cc2ccc(O)cc2)C(=O)N(C)[C@@H](CO)C(=O)N[C@@H](C)C(=O)N1)C(N)=O` [Compound R3088, [mXyly1(2,10)]Ac-Nvl-C-Phg-T-(5-F)W-E-Y-(N-Me)S-A-C-Nvl-NH2] (Ac-[Nva]C[Phg]T[Trp(5-F)]EY[NMeS]AC[Nva]-NH2; linker 2-10 via mXylylene), the IC50 was greater than 100000 nM.

Still in this assay, the particulars now being: inhibition of lysis of antibody-sensitized sheep erythrocytes, complete human sera.
For `CCC[C@H](NC(C)=O)C(=O)N[C@@H](CS)C(=O)N[C@@H](Cc1ccc(O)cc1)C(=O)N[C@@H](CC(N)=O)C(=O)N[C@@H](CC(N)=O)C(=O)N[C@H](C(=O)N[C@@H](CCC(=O)O)C(=O)N[C@@H](CS)C(=O)N[C@@H](CCC(=O)O)C(=O)N[C@@H](Cc1ccc(O)cc1)C(=O)N1CCC[C@H]1C(=O)N[C@H](C(=O)N[C@H](C(N)=O)C(C)(C)C)c1ccccc1)C(C)(C)C` [Compound R3128, Ac-Nvl-C-Y-N-N-Tbg-E-C-E-Y-P-Phg-Tbg-NH2] (Ac-[Nva]CYNN[Tle]ECEYP[Phg][Tle]-NH2), the IC50 was greater than 100000 nM. Consider `CCC[C@H](NC(=O)[C@@H]1CSCc2ccc(cc2)CSC[C@H](NC(=O)[C@H](CCC)NC(C)=O)C(=O)N[C@@H](C2CCCCC2)C(=O)N[C@@H]([C@@H](C)O)C(=O)N[C@@H](Cc2c[nH]c3ncccc23)C(=O)N[C@@H](CCC(=O)O)C(=O)N[C@@H](Cc2ccc(O)cc2)C(=O)N(C)[C@@H](CO)C(=O)N[C@@H](Cc2c[nH]cn2)C(=O)N1)C(N)=O` [Compound R3058, [pXylyl(2,10)]Ac-Nvl-C-Chg-T-azaTrp-E-Y-(N-Me)S-H-C-Nvl-NH2] (Ac-[Nva]C[Chg]T[Trp(7-aza)]EY[NMeS]HC[Nva]-NH2; linker 2-10 via pXylylene), for which the IC50 is greater than 10000 nM. The same measure, in the same setting: under `CCC[C@H](NC(C)=O)C(=O)N[C@@H](CS)C(=O)N[C@@H](Cc1ccc(O)cc1)C(=O)N[C@@H](CCCCN)C(=O)N[C@@H](CC(N)=O)C(=O)N[C@@H](Cc1ccc(O)cc1)C(=O)N[C@@H](Cc1c[nH]cn1)C(=O)N[C@@H](Cc1c[nH]c2ncccc12)C(=O)N[C@@H](CCC(=O)O)C(=O)N[C@@H](Cc1ccc(O)cc1)C(=O)N1CCC[C@H]1C(=O)N[C@H](C(=O)N[C@@H](Cc1ccc(O)cc1)C(N)=O)C(C)(C)C` [Compound R3000, Ac-Nvl-C-Y-K-N-Y-H-azaTrp-E-Y-P-Tbg-Y-NH2] (Ac-[Nva]CYKNYH[Trp(7-aza)]EYP[Tle]Y-NH2) stands greater than 10000 nM. For the compound `CCC[C@H](NC(=O)[C@@H](NC(=O)[C@@H]1CCCN1C(=O)[C@H](Cc1ccc(O)cc1)NC(=O)[C@H](CCC(=O)O)NC(=O)[C@H](Cc1c[nH]c2ccccc12)NC(=O)[C@H](Cc1ccc(O)cc1)NC(=O)[C@@H](NC(=O)[C@H](CC(N)=O)NC(=O)[C@H](CCC(=O)O)NC(=O)[C@H](Cc1ccc(O)cc1)NC(C)=O)C(C)(C)C)c1ccccc1)C(N)=O` [Compound R3041, Ac-Y-E-N-Tbg-Y-W-E-Y-P-Phg-Nvl-NH2], the IC50 came out at 71.3 nM. On the same count and under the same terms, under `CCC[C@H](NC(=O)[C@@H]1CSCc2cccc(c2)CSC[C@H](NC(=O)[C@@H](NC(C)=O)C2CCCCC2)C(=O)N[C@@H](c2ccccc2)C(=O)N[C@@H]([C@@H](C)O)C(=O)N[C@@H](Cc2c[nH]c3ncccc23)C(=O)N[C@@H](CCC(=O)O)C(=O)N[C@@H](Cc2ccc(O)cc2)C(=O)N(C)[C@@H](CO)C(=O)N[C@@H](C)C(=O)N1)C(N)=O` [Compound R3089, [mXylyl(2,10)]Ac-Chg-C-Phg-T-azaTrp-E-Y-(N-Me)S-A-C-Nvl-NH2] (Ac-[Chg]C[Phg]T[Trp(7-aza)]EY[NMeS]AC[Nva]-NH2; linker 2-10 via mXylylene) stands greater than 15000 nM; under `CCC[C@H](NC(=O)[C@@H]1CSSC[C@H](NC(=O)[C@H](CCC)NC(C)=O)C(=O)N[C@@H](c2ccccc2)C(=O)N[C@@H]([C@@H](C)O)C(=O)N[C@@H](Cc2c[nH]c3ncccc23)C(=O)N[C@@H](CCC(=O)O)C(=O)N[C@@H](Cc2ccc(O)cc2)C(=O)N(C)[C@@H](CO)C(=O)N[C@@H](Cc2c[nH]cn2)C(=O)N1)C(N)=O` [Compound R3042, [cyclo(2,10)]Ac-Nvl-C-Phg-T-azaTrp-E-Y-(N-Me)S-H-C-Nvl-NH2] (Ac-[Nva]C[Phg]T[Trp(7-aza)]EY[NMeS]HC[Nva]-NH2; disulfide 2-10), greater than 100000 nM. With `CCC[C@H](NC(=O)[C@@H]1CSCc2cccc(c2)CSC[C@H](NC(=O)[C@H](CCC)NC(C)=O)C(=O)N[C@@H](c2ccccc2)C(=O)N[C@@H]([C@@H](C)O)C(=O)N[C@@H](Cc2c[nH]c3ccc(F)cc23)C(=O)N[C@@H](CCC(=O)O)C(=O)N[C@@H](Cc2ccc(O)cc2)C(=O)N(C)[C@@H](CO)C(=O)N[C@@H](C)C(=O)N1)C(N)=O` [Compound R3088, [mXyly1(2,10)]Ac-Nvl-C-Phg-T-(5-F)W-E-Y-(N-Me)S-A-C-Nvl-NH2] (Ac-[Nva]C[Phg]T[Trp(5-F)]EY[NMeS]AC[Nva]-NH2; linker 2-10 via mXylylene), the concentration for half-maximal inhibition (IC50) was greater than 100000 nM. With `CCC[C@H](NC(=O)[C@@H](NC(=O)[C@@H]1CCCN1C(=O)[C@H](Cc1ccc(O)cc1)NC(=O)[C@H](CCC(=O)O)NC(=O)[C@H](Cc1c[nH]c2ncccc12)NC(=O)[C@H](Cc1ccc(O)cc1)NC(=O)[C@@H](NC(=O)[C@H](CC(=O)O)NC(=O)[C@@H]1CSCc2cccc(c2)CSC[C@H](NC(C)=O)C(=O)N[C@@H](C(C)C)C(=O)N[C@@H](C)C(=O)N[C@@H](CCCNC(=N)N)C(=O)N[C@@H](Cc2ccccc2)C(=O)N1)C(C)(C)C)c1ccccc1)C(N)=O` [Compound R3150, [mXylyl(1,6)]Ac-C-V-A-R-F-C-D-Tbg-Y-azaTrp-E-Y-P-Phg-Nvl-NH2] (Ac-CVARFCD[Tle]Y[Trp(7-aza)]EYP[Phg][Nva]-NH2; linker 1-6 via mXylylene), the IC50 came to 37 nM. The same measure, in the same setting: under `CCC[C@H](NC(=O)[C@@H]1CSCc2cccc(c2)CSC[C@H](NC(=O)[C@H](CCC)NC(C)=O)C(=O)N[C@@H](c2ccccc2)C(=O)N[C@@H]([C@@H](C)O)C(=O)N[C@@H](Cc2c[nH]c3ncccc23)C(=O)N[C@@H](CCC(=O)O)C(=O)N[C@@H](Cc2ccc(O)cc2)C(=O)N(C)[C@@H](CO)C(=O)N[C@@H](C)C(=O)N1)C(N)=O` [Compound R3038, [mXylyl(2,10)]Ac-Nvl-C-Phg-T-azaTrp-E-Y-(N-Me)S-A-C-Nvl-NH2] (Ac-[Nva]C[Phg]T[Trp(7-aza)]EY[NMeS]AC[Nva]-NH2; linker 2-10 via mXylylene) stands 140 nM; under `CCC[C@H](NC(=O)[C@@H]1CSCc2cccc(c2)CSC[C@H](NC(=O)[C@H](CCC)NC(C)=O)C(=O)N[C@@H](c2ccccc2)C(=O)N[C@@H]([C@@H](C)O)C(=O)N[C@@H](Cc2c[nH]c3ncccc23)C(=O)N[C@@H](CCC(=O)O)C(=O)N[C@@H](Cc2ccc(F)cc2)C(=O)N(C)[C@@H](CO)C(=O)N[C@@H](Cc2c[nH]cn2)C(=O)N1)C(N)=O` [Compound R3073, [mXyly1(2,10)]Ac-Nvl-C-Phg-T-azaTrp-E-Phe(4-F)-(N-Me)S-H-C-Nvl-NH2] (Ac-[Nva]C[Phg]T[Trp(7-aza)]E[Phe(4-F)][NMeS]HC[Nva]-NH2; linker 2-10 via mXylylene), 403 nM. For `CCCCCCCC(=O)NCCCC[C@H](NC(=O)[C@@H](NC(=O)[C@@H]1CCCN1C(=O)[C@H](Cc1ccc(O)cc1)NC(=O)[C@H](CCC(=O)O)NC(=O)[C@H](Cc1c[nH]c2ncccc12)NC(=O)[C@H](Cc1ccc(O)cc1)NC(=O)[C@@H](NC(=O)[C@H](CC(=O)O)NC(=O)[C@@H]1CSCc2cccc(c2)CSC[C@H](NC(C)=O)C(=O)N[C@@H](C)C(=O)N[C@@H](CCC(=O)O)C(=O)N[C@@H](CCCNC(=N)N)C(=O)N[C@@H](Cc2ccccc2)C(=O)N1)C(C)(C)C)c1ccccc1)C(N)=O` [Compound R3166, [mXylyl(1,6)]Ac-C-A-E-R-F-C-D-Tbg-Y-azaTrp-E-Y-P-Phg-(Lys-C8)-NH2], the IC50 is 17.5 nM. As for `CC(=O)N[C@H]1CSCc2cccc(c2)CSC[C@@H](C(=O)N[C@@H](CC(=O)O)C(=O)N[C@H](C(=O)N[C@@H](Cc2ccc(O)cc2)C(=O)N[C@@H](Cc2c[nH]c3ccccc23)C(=O)N[C@@H](CCC(=O)O)C(=O)N[C@@H](Cc2ccccc2)C(N)=O)C(C)(C)C)NC(=O)[C@H](Cc2ccccc2)NC(=O)[C@H](CCCNC(=N)N)NC(=O)[C@H](CCC(=O)O)NC(=O)[C@H](C(C)C)NC1=O` [Compound R3138, [mXylyl(1,6)]Ac-C-V-E-R-F-C-D-Tbg-Y-W-E-F-NH2] (Ac-CVERFCD[Tle]YWEF-NH2; linker 1-6 via mXylylene), the IC50 was 87.2 nM. Same read-out and setting: under `CCC[C@H](N)C(=O)N[C@H]1CSCc2cccc(c2)CSC[C@@H](C(N)=O)NC(=O)CNC(=O)[C@H](Cc2ccc(F)cc2)N(C)C(=O)[C@H](Cc2c[nH]cn2)NC(=O)[C@H](CO)N(C)C(=O)[C@H](Cc2ccc(F)cc2)N(C)C(=O)[C@H](c2ccccc2)NC(=O)[C@H](CO)N(C)C(=O)[C@H](Cc2ccc(O)cc2)NC1=O` [Compound R3075, [mXylyl(2,11)]Nvl-C-Y-(N-Me)S-Phg-(N-Me-4-F)Phe-(N-Me)S-H-(N-Me-4-F)Phe-G-C-NH2] (H-[Nva]CY[NMeS][Phg][NMePhe(4-F)][NMeS]H[NMePhe(4-F)]GC-NH2; linker 2-11 via mXylylene) stands greater than 75000 nM; under `CSCC[C@H](N)C(=O)N[C@H]1CSCc2cccc(c2)CSC[C@@H](C(=O)N[C@@H](CCC(=O)O)C(=O)N[C@H](C(=O)N[C@@H](CCCNC(=N)N)C(=O)N[C@@H](Cc2c[nH]c3ccccc23)C(=O)N[C@@H](CCC(=O)O)C(=O)N[C@@H](Cc2ccc(O)cc2)C(N)=O)C(C)C)NC(=O)[C@H](Cc2ccc(O)cc2)NC(=O)[C@H](CCCNC(=N)N)NC(=O)[C@H](CCC(=O)O)NC(=O)[C@H](CO)NC1=O` [Compound R3020, [mXylyl(2,7)]M-C-S-E-R-Y-C-E-V-R-W-E-Y-NH2] (H-MCSERYCEVRWEY-NH2; linker 2-7 via mXylylene), 24.6 nM; under `CC(=O)N[C@H]1CSCc2cccc(c2)CSC[C@@H](C(=O)N[C@@H](CC(=O)O)C(=O)N[C@H](C(=O)N[C@@H](Cc2ccc(O)cc2)C(=O)N[C@@H](Cc2c[nH]c3ccccc23)C(=O)N[C@@H](CCC(=O)O)C(=O)N[C@@H](Cc2ccc(O)cc2)C(=O)N2CCC[C@H]2C(N)=O)C(C)C)NC(=O)[C@H](Cc2ccccc2)NC(=O)[C@H](CCCNC(=N)N)NC(=O)[C@H](CCC(=O)O)NC(=O)[C@H](C(C)C)NC1=O` [Compound R3140, [mXv1v1(1,6)]Ac-C-V-E-R-F-C-D-V-Y-W-E-Y-P-NH2], 17.9 nM.
